Earlier results in PMC3426641 (Biochemistry, 2012).

Biological target: T1, Eis_Mtb (Mycobacterium tuberculosis, UniProt P9WFK7)
Details: TLC and NMR spectroscopy; cited from earlier work

T1 sequence (P9WFK7 whole entry): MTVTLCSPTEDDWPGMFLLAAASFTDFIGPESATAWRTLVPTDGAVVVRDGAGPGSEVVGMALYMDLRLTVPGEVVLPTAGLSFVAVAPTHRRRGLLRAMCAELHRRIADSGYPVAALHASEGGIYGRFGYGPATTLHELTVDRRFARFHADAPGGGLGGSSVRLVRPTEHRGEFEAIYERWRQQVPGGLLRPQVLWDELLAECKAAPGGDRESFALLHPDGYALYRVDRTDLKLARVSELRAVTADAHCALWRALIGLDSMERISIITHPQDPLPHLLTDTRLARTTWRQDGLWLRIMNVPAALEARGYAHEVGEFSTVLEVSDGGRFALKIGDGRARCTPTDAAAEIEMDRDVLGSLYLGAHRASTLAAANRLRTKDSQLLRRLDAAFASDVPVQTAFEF

Row | Molecule | positions acetylated (regio-specificity)
1 | NC[C@H]1O[C@H](O[C@H]2[C@H](O)[C@@H](O)[C@H](N)C[C@@H]2N)[C@H](N)[C@@H](O)[C@@H]1O [NEA, neamine] | first at the 2′-, then at the 6′-, and finally at the 1-position

Biological target: T1, Eis_Mtb
Details: cited from earlier work

Row | Molecule | level of acetylation by Eis from M. tuberculosis
2 | kanamycin A | di-acetylated

Same assay, conditions: number of acetylations per AG; previously reported; cited from earlier work

Row | Molecule | level of acetylation by Eis from M. tuberculosis
3 | NC[C@H]1O[C@H](O[C@H]2[C@H](O)[C@@H](O)[C@H](N)C[C@@H]2N)[C@H](N)[C@@H](O)[C@@H]1O [NEA, neamine] | tri-acetylated
4 | NC[C@H]1O[C@H](O[C@H]2[C@H](O[C@@H]3O[C@H](CO)[C@@H](O)[C@H]3O)[C@@H](O)[C@H](N)C[C@@H]2N)[C@H](N)[C@@H](O)[C@@H]1O [RIB, ribostamycin] | tri-acetylated
5 | [H]/N=C(/N)N[C@H]1[C@H](O)[C@@H](O)[C@H](O[C@@H]2O[C@@H](C)[C@](O)(C=O)[C@H]2O[C@@H]2O[C@@H](CO)[C@H](O)[C@@H](O)[C@@H]2NC)[C@@H](N/C(N)=N\[H])[C@@H]1O [STR, streptomycin] | not modified
6 | NC[C@H]1O[C@H](O[C@H]2[C@H](O)[C@@H](O[C@H]3O[C@H](CO)[C@@H](O)[C@H](N)[C@H]3O)[C@H](N)C[C@@H]2N)[C@H](N)C[C@@H]1O [TOB, tobramycin] | tetra-acetylated
7 | NC[C@@H]1O[C@H](O[C@H]2[C@@H](O)[C@H](O[C@@H]3[C@@H](O)[C@H](N)C[C@H](N)[C@H]3O[C@H]3O[C@H](CO)[C@@H](O)[C@H](O)[C@H]3N)O[C@@H]2CO)[C@H](N)[C@@H](O)[C@@H]1O [PAR, paromomycin] | di-acetylated
8 | NCC[C@H](O)C(=O)N[C@@H]1C[C@H](N)[C@@H](O[C@H]2O[C@H](CN)[C@@H](O)[C@H](O)[C@H]2O)[C@H](O)[C@H]1O[C@H]1O[C@H](CO)[C@@H](O)[C@H](N)[C@H]1O [AMK, amikacin] | tri-acetylated
9 | CCN[C@@H]1C[C@H](N)[C@@H](O[C@H]2OC(CN)=CC[C@H]2N)[C@H](O)[C@H]1O[C@H]1OC[C@](C)(O)[C@H](NC)[C@H]1O [NET, netilmicin] | di-acetylated
10 | CN[C@@H]1[C@@H](O)[C@@H](O[C@@H]2[C@@H](O)[C@H](O[C@H]3OC(CN)=CC[C@H]3N)[C@@H](N)C[C@H]2N)OC[C@]1(C)O [SIS, sisomicin] | tri-acetylated
11 | CN[C@@H]1[C@H](O)[C@H](NC)[C@H]2O[C@@]3(O)C(=O)C[C@@H](C)O[C@H]3O[C@@H]2[C@H]1O [SPT, spectinomycin] | not modified
12 | CN[C@@H]1[C@@H](O[C@H]2O[C@H](CO)[C@@H](N)[C@H](O)[C@H]2O)OC2C[C@@H](N)[C@@H](O[C@H]3[C@H](O)[C@@H](O)[C@H](N)C[C@@H]3N)OC2[C@@H]1O (some centres unmarked) [APR, apramycin] | could not chemically modify
13 | NC[C@@H]1O[C@H](O[C@H]2[C@@H](O)[C@H](O[C@@H]3[C@@H](O)[C@H](N)C[C@H](N)[C@H]3O[C@H]3O[C@H](CN)[C@@H](O)[C@H](O)[C@H]3N)O[C@@H]2CO)[C@H](N)[C@@H](O)[C@@H]1O [NEO, neomycin B] | tri-acetylated
14 | CN[C@@H]1C[C@H](N)[C@@H](O)[C@H](O[C@H]2O[C@H](CO)[C@H](O)[C@@H]3O[C@@]4(O[C@@H]23)O[C@H]([C@H](N)CO)[C@H](O)[C@H](O)[C@H]4O)[C@H]1O [HYG, hygromycin] | di-acetylated
